System: yeast genes (level of expressed mRNA)
Experiment: DNA chip analysis of expressed mRNA of yeast genes after 2 h culture with a toxic chemical substance
Format: cell-based, Saccharomyces cerevisiae S288C
Settings: for The level of expressed mRNA in the presence of chemical substance/ (ratio to absence): transport facilitation protein gene; for The level of expressed mRNA in the presence of chemical substance/: ratio to no chemical; for The level of expressed mRNA in the presence of chemical substance/ (ratio to absence of chemical substance): stress protein genes, DNA chip
Summary of the method: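 S. cerevisiae S288C in YPD at 25 °C was exposed at log phase for 2 h to a growth-inhibiting, non-lethal concentration of the chemical. Poly(A) mRNA was reverse-transcribed with Cy3- or Cy5-dUTP and hybridized to a whole-genome yeast DNA chip (65 °C, >12 h). Values are fluorescence ratios versus untreated cells.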

## sodium dodecylbenzosulfonate [(17)]
Gene YNL037C
  level of expressed mRNA in the presence of chemical substance/in its absence: 0.9
Gene YNL045W
  level of expressed mRNA in the presence of chemical substance/in its absence: 1.1
Gene YNL058C
  The level of expressed mRNA in the presence of chemical substance/absence: YNL058C: 0.8
Gene YNL063W
  The level of expressed mRNA in the presence of chemical substance/absence: YNL063W: 0.9
Gene YNL104C
  level of expressed mRNA in the presence of chemical substance/in its absence: 0.9
Gene YNL106C
  level of expressed mRNA in the presence of chemical substance/in its absence: 1.1
Gene YNL130C
  level of expressed mRNA in the presence of chemical substance/in its absence: 0.7
Gene YNL169C
  level of expressed mRNA in the presence of chemical substance/in its absence: 1.1
Gene YNL176C
  The level of expressed mRNA in the presence of chemical substance/absence: YNL176C: 0.6
Gene YNL181W
  The level of expressed mRNA in the presence of chemical substance/absence: YNL181W: 0.8
Gene YNL191W
  The level of expressed mRNA in the presence of chemical substance/absence: YNL191W: 0.5
Gene YNL194C
  The level of expressed mRNA in the presence of chemical substance/absence: YNL194C: 0.8
Gene YNL200C
  The level of expressed mRNA in the presence of chemical substance/absence: YNL200C: 1.2
Gene YNL212W
  The level of expressed mRNA in the presence of chemical substance/absence: YNL212W: 0.9
Gene YNL231C
  level of expressed mRNA in the presence of chemical substance/in its absence: 3.1
Gene YNL253W
  The level of expressed mRNA in the presence of chemical substance/absence: YNL253W: 1.1
Gene YNL265C
  The level of expressed mRNA in the presence of chemical substance/absence: YNL265C: 0.9
Gene YNL276C
  The level of expressed mRNA in the presence of chemical substance/absence: YNL276C: 1.1
Gene YNL322C
  level of expressed mRNA in the presence of chemical substance/in its absence: 0.9
Gene YNR002C
  level of expressed mRNA in the presence of chemical substance/in its absence: 1.5
Gene YNR019W
  level of expressed mRNA in the presence of chemical substance/in its absence: 2.4
Gene YNR033W
  level of expressed mRNA in the presence of chemical substance/in its absence: 0.9
Gene YNR051C
  The level of expressed mRNA in the presence of chemical substance/absence: YNR051C: 0.7
Gene YNR059W
  level of expressed mRNA in the presence of chemical substance/in its absence: 2.6
Gene YOL026C
  The level of expressed mRNA in the presence of chemical substance/absence: YOL026C: 2.1
Gene YOL030W
  The level of expressed mRNA in the presence of chemical substance/absence: YOL030W: 0.9
Gene YOL058W
  level of expressed mRNA in the presence of chemical substance/in its absence: 1.2
Gene YOL126C
  level of expressed mRNA in the presence of chemical substance/in its absence: 1.6
Gene YOL143C
  level of expressed mRNA in the presence of chemical substance/in its absence: 1.8
Gene YOL153C
  level of expressed mRNA in the presence of chemical substance/in its absence: 1.1
Gene YOL157C
  level of expressed mRNA in the presence of chemical substance/in its absence: 1.4
Gene YOR022C
  The level of expressed mRNA in the presence of chemical substance/absence: YOR022C: 1.1
Gene YOR087W
  The level of expressed mRNA in the presence of chemical substance/absence: YOR087W: 0.8
Gene YOR088W
  The level of expressed mRNA in the presence of chemical substance/absence: YOR088W: 0.7
Gene YOR099W
  level of expressed mRNA in the presence of chemical substance/in its absence: 1.2
Gene YOR130C
  level of expressed mRNA in the presence of chemical substance/in its absence: 1.5
Gene YOR136W
  level of expressed mRNA in the presence of chemical substance/in its absence: 0.8
Gene YOR138C
  The level of expressed mRNA in the presence of chemical substance/absence: YOR138C: 1.1
Gene YOR155C
  The level of expressed mRNA in the presence of chemical substance/absence: YOR155C: 0.8
Gene YOR253W
  The level of expressed mRNA in the presence of chemical substance/absence: YOR253W: 0.9
Gene YOR267C
  The level of expressed mRNA in the presence of chemical substance/absence: YOR267C: 1.3
Gene YOR325W
  The level of expressed mRNA in the presence of chemical substance/absence: YOR325W: 0.8
Gene YOR336W
  level of expressed mRNA in the presence of chemical substance/in its absence: 1.0
Gene YOR344C
  level of expressed mRNA in the presence of chemical substance/in its absence: 1.3
Gene YOR347C
  level of expressed mRNA in the presence of chemical substance/in its absence: 1.7
Gene YPL005W
  The level of expressed mRNA in the presence of chemical substance/absence: YPL005W: 1.2
Gene YPL017C
  level of expressed mRNA in the presence of chemical substance/in its absence: 1.3
Gene YPL107W, DNA chip fluorescence ratio to control without chemical, 2 hours culture with chemical, growth-inhibiting non-lethal concentration
  The level of expressed mRNA in the presence of chemical substance / the level in the absence of chemical substance, yeast gene YPL107W: 1.0
Gene YPL138C, DNA chip fluorescence ratio to control without chemical, 2 hours culture with chemical, growth-inhibiting non-lethal concentration
  The level of expressed mRNA in the presence of chemical substance / the level in the absence of chemical substance, yeast gene YPL138C: 0.8
Gene YPL150W
  The level of expressed mRNA in the presence of chemical substance/absence: YPL150W: 1.4
Gene YPL151C
  The level of expressed mRNA in the presence of chemical substance/absence: YPL151C: 0.8
Gene YPL152W
  The level of expressed mRNA in the presence of chemical substance/absence: YPL152W: 1.2
Gene YPL168W
  The level of expressed mRNA in the presence of chemical substance/absence: YPL168W: 1.1
Gene YPL180W
  The level of expressed mRNA in the presence of chemical substance/absence: YPL180W: 1.0
Gene YPL188W
  The level of expressed mRNA in the presence of chemical substance/absence: YPL188W: 0.7
Gene YPL221W
  The level of expressed mRNA in the presence of chemical substance/absence: YPL221W: 1.5
Gene YPL225W
  The level of expressed mRNA in the presence of chemical substance/absence: YPL225W: 1.0
Gene YPL249C
  The level of expressed mRNA in the presence of chemical substance/absence: YPL249C: 0.8
Gene YPL260W
  The level of expressed mRNA in the presence of chemical substance/absence: YPL260W: 0.8
Gene YPL265W
  level of expressed mRNA in the presence of chemical substance/in its absence: 0.5
Gene YPR006C
  level of expressed mRNA in the presence of chemical substance/in its absence: 1.8
Gene YPR026W
  level of expressed mRNA in the presence of chemical substance/in its absence: 0.9
Gene YPR049C
  The level of expressed mRNA in the presence of chemical substance/absence: YPR049C: 1.0
Gene YPR061C
  The level of expressed mRNA in the presence of chemical substance/absence: YPR061C: 1.1
Gene YPR093C
  The level of expressed mRNA in the presence of chemical substance/absence: YPR093C: 1.4
Gene YPR146C
  The level of expressed mRNA in the presence of chemical substance/absence: YPR146C: 1.0
Gene YPR148C
  The level of expressed mRNA in the presence of chemical substance/absence: YPR148C: 0.9
Gene YPR150W
  The level of expressed mRNA in the presence of chemical substance/absence: YPR150W: 0.9
Gene YPR158W
  The level of expressed mRNA in the presence of chemical substance/absence: YPR158W: 0.9
Gene YPR169W
  The level of expressed mRNA in the presence of chemical substance/absence: YPR169W: 1.1
Gene YPR172W
  The level of expressed mRNA in the presence of chemical substance/absence: YPR172W: 1.1
Gene YPR174C
  The level of expressed mRNA in the presence of chemical substance/absence: YPR174C: 1.4
Yeast gene YAL023C
  The level of expressed mRNA in the presence of chemical substance/in the absence of chemical substance: 1.0
Yeast gene YAL060W
  The level of expressed mRNA in the presence of chemical substance/in the absence of chemical substance: 1.1
Yeast gene YAL062W
  The level of expressed mRNA in the presence of chemical substance/in the absence of chemical substance: 1.0
Yeast gene YAL067C
  The level of expressed mRNA in the presence of chemical substance/ (ratio to absence): 1.0
Yeast gene YAR010C
  The level of expressed mRNA in the presence of chemical substance/The level of expressed mRNA in the absence of chemical substance: 1.5
Yeast gene YBL005W-A
  The level of expressed mRNA in the presence of chemical substance/The level of expressed mRNA in the absence of chemical substance: 1.3
Yeast gene YBL030C
  The level of expressed mRNA in the presence of chemical substance/ (ratio to absence): 1.0
Yeast gene YBL038W, mitochondria-located protein genes, 2 h culture with chemical
  The level of expressed mRNA in the presence of chemical substance/ (ratio to absence), gene YBL038W: 1.2
Yeast gene YBL041W
  The level of expressed mRNA in the presence of chemical substance/The level of expressed mRNA in the absence of chemical substance: 1.3
Yeast gene YBL043W
  The level of expressed mRNA in the presence of chemical substance/The level of expressed mRNA in the absence of chemical substance: 2.3
Yeast gene YBL065W
  The level of expressed mRNA in the presence of chemical substance/: 1.1
Yeast gene YBL078C
  The level of expressed mRNA in the presence of chemical substance/The level of expressed mRNA in the absence of chemical substance: 1.8
Yeast gene YBL093C
  The level of expressed mRNA in the presence of chemical substance/ (ratio to absence of chemical substance): 1.4
Yeast gene YBL099W
  The level of expressed mRNA in the presence of chemical substance/ (ratio to absence): 0.7
Yeast gene YBR006W
  The level of expressed mRNA in the presence of chemical substance/in the absence of chemical substance: 1.2
Yeast gene YBR036C, ratio of DNA chip fluorescence intensity to that without chemical substance
  The level of expressed mRNA in the presence of chemical substance/ (in its absence), gene YBR036C: 2.1
Yeast gene YBR044C
  The level of expressed mRNA in the presence of chemical substance/ (ratio to absence of chemical substance): 0.9
Yeast gene YBR047W
  The level of expressed mRNA in the presence of chemical substance/: 1.3
Yeast gene YBR052C
  The level of expressed mRNA in the presence of chemical substance/ (ratio to absence): 1.8
Yeast gene YBR056W
  The level of expressed mRNA in the presence of chemical substance/in the absence of chemical substance: 2.4
Yeast gene YBR068C
  The level of expressed mRNA in the presence of chemical substance/ (ratio to absence): 1.1
Yeast gene YBR101C
  The level of expressed mRNA in the presence of chemical substance/: 0.9

— patent US20050112573A1, “Method of detecting toxic substance” (priority 2001, published 2005)
